Experimental data reported in article PMC5399312 (Journal of Experimental & Clinical Cancer Research : CR, 2017).
Like-named read-outs stand apart in the source and are kept apart here. One block for each compound: values may come before it.

Experiments:
[1] = target: T1, HK2 (Homo sapiens, UniProt P52789); test: Microscale thermophoresis (MST) assay; type: binding; conditions: labelled HK2 20 nM, 25 °C
T1 construct: made in house; host or cells: E. coli BL21 (DE3)
T1 sequence (P52789 1-917): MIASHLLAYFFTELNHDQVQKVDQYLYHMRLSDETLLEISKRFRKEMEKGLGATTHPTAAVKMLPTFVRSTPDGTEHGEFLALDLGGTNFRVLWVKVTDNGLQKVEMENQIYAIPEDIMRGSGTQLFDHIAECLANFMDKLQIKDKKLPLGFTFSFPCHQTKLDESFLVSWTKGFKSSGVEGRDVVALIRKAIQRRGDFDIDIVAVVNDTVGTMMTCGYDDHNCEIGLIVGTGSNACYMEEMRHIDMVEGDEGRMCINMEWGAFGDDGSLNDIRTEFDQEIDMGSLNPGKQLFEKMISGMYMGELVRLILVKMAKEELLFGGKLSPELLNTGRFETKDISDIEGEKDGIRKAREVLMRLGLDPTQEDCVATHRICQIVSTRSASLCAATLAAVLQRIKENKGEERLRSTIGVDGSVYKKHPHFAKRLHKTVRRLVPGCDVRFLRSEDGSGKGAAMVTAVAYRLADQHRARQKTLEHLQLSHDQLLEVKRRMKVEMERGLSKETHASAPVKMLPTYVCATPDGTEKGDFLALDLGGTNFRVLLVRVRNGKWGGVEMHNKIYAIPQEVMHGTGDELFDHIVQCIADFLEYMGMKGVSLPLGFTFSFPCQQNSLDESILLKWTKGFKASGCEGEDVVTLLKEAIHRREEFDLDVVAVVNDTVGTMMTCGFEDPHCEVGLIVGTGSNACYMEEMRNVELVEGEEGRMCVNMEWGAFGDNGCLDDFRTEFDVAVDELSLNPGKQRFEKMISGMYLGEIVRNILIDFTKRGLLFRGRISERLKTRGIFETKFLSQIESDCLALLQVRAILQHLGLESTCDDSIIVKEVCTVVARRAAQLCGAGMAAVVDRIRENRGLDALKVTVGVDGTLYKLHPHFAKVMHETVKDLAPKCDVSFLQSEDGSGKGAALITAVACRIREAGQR
Protocol: MST was used to analyze the binding affinity between potential ligands and receptors. The purified HK2 was labeled with the Monolith NT™ Protein Labeling Kit RED (Cat # L001) according to the supplied labeling protocol. Labelled HK2 was kept constant at 20 nM, and all tested samples were 1:1 diluted in a 20 mM HEPES (pH 7.4) and 0.05 (v/v) % Tween-20. After 10 min incubation at room temperature, samples were loaded into Monolith™ standard-treated capillaries. And the thermophoresis was measured at 25 °C after 30 min incubation on a Monolith NT.115 instrument (Germany). Furthermore, laser power was set to 20% or 40% using 30 sec on-time. The LED power was set to 100%. The dissociation constant Kd values were fitted by using the NTAnalysis software.

[2] = parameters: method as in PMID 17551814; conditions: dose range of 500-2000 mg/Kg in mice; cited from earlier work
[3] = target: T1, HK2; test: In vitro enzyme inhibition assay (G6P-DH coupled, NADH 340 nm); type: biochemical
Protocol: Then 85 μL assay mix containing 100 mM Tris HCl pH 8.0, 5 mM MgCl2, 200 mM Glucose, 0.8 mM ATP, 1 mM NAD^+, 0.25 Units of G6P-DH, was added.

[4] = Cytotoxicity test (CCK-8); type: cell-based
Protocol: (§1) Met was used as a positive control. All experiments were performed in triplicate.

[5] = system: HCT116; test: Cytotoxicity test (CCK-8); type: cell-based; conditions: Homo sapiens, HCT-116; HCT116, 48 h
Protocol: as §1

[6] = system: Lovo; test: Cytotoxicity test (CCK-8); type: cell-based; conditions: Homo sapiens, 48 h
Protocol: as §1

[7] = system: MCF-7; test: Cytotoxicity test (CCK-8); type: cell-based; conditions: Homo sapiens, MCF7; MCF-7, 48 h
Protocol: as §1

[8] = system: SMMC-7721; test: Cytotoxicity test (CCK-8); type: cell-based; conditions: Homo sapiens, SMMC-7721, 48 h
Protocol: as §1

[9] = system: SW480; test: Cytotoxicity test (CCK-8); type: cell-based; conditions: Homo sapiens, SW480, 48 h
Protocol: as §1

[10] = recombinant HK2, n.i means no enzyme inhibition
[11] = recombinant HK2, n.i means no enzyme inhibition, read-out: Enzyme IC50

Kd [1]: No binding affinity
SMILES: O=CC[C@@H](O)[C@H](O)[C@H](O)CO [2-DG, 2-Deoxyglucose]
therapeutic activity as a single agent [2]: does not have significant therapeutic activity

SMILES: O=C(O)C(=O)CBr [3-BrPA, 3-Bromopyruvate]
Kd ([1]; read-out: Kd): 742 ± 96.8 µM

Enzyme IC50 [3, 10]: n.i
SMILES: [H]/N=C(\N/C(=N/[H])NCCCCCCNC(=N)NC(=N)Nc1ccc(Cl)cc1)Nc1ccc(Cl)cc1 [Chlorhexidine]

SMILES: O=C(CO)[C@@H](O)[C@H](O)[C@H](O)CO [D-Fructose]
Enzyme IC50 [3, 10]: n.i ^C

IC50 [3, 11]: > 1000 µM
SMILES: N[C@H]1C(O)O[C@H](CO)[C@@H](O)[C@@H]1O (stereo partly drawn) [D-Glucosamine]

SMILES: CNC[C@H](O)[C@@H](O)[C@H](O)[C@H](O)CO [Meglumine]
IC50 [3]: > 1000 µM

Kd ([1]; read-out: Kd): 3930 ± 282 µM
SMILES: CN(C)C(=N)N=C(N)N [Metformin]
IC50 at 48 h ([4]; African green monkey, Vero normal cells): > 1000 µM
IC50 at 48 h ([4]; human, LO2 normal cells): > 1000 µM
IC50 [5]: > 1000 µM
IC50 [6]: > 1000 µM
IC50 [7]: > 1000 µM
IC50 [8]: > 1000 µM
IC50 [9]: > 1000 µM

Enzyme IC50 [3, 10]: n.i
SMILES: NCCC(O)(P(=O)(O)O)P(=O)(O)O [Pamidronate]

IC50 [3, 11]: > 1000 µM
SMILES: O=C(O)c1cc(/N=N/c2ccc(S(=O)(=O)Nc3ccccn3)cc2)ccc1O [Sulfasalazine]

IC50 [3, 11]: > 1000 µM
SMILES: O=C1O[C@H]([C@@H](O)CO)C(O)=C1O [Vitamin C]
